The source of these data is patent US9241968B2, “Nonapeptide with anti-tumour activity” (Lytix Biopharma AS, priority 2008, dated 2016).

Data set [1] has as its system panel of 37 human cancer cell lines. Put plainly: In vitro cytotoxic activity, MTS assay, panel summary. Format: cell-based. Particulars: range stated in conclusions. As to the method:
2. Materials and Methods 2.1. Test Substances 2.1.1. Test Substances • Test substances, LTX-302, LTX-313, LTX-315, LTX-320 and LTX-329 (see Table 1) provided in powder form. 2.1.2. Positive Control • Triton X-100 was used as positive control, supplied by Oncodesign (Dijon, France) from Sigma (Saint Quentin Fallavier, France). 2.1.3. Drug Vehicle and Storage Conditions • Compounds were stored at 4° C. Powder was first dissolved in serum free culture medium (RPMI 1640, Lonza, Verviers, Belgium) and further diluted using serum-free culture medium to reach appropriate dilutions. Stock solution was not stored and was prepared fresh the day of experiment. • 1% (final concentration) Triton X-100 was obtained by dilution using culture medium. 2.2. Tumor Cell Lines and Culture Conditions 2.2.1. Tumor Cell Lines
Tumor cells were grown as adherent monolayers or as suspensions at 37° C. in a humidified atmosphere (5% CO2, 95% air). The culture medium was RPMI 1640 containing 2 mM L-glutamine (Lonza, Belgium) and supplemented with 10% fetal bovine serum (FBS, Lonza). For experimental use, the adherent cells were detached from the culture flask by a 5-minute treatment with trypsin-versene (Lonza), diluted in Hanks' medium without calcium or magnesium (Lonza) and neutralized by addition of complete culture medium. Cells were counted in a hemocytometer and their viability was assessed by 0.25% trypan blue exclusion.
Tumor cells were plated in 96-well flat-bottom microtitration plates (Nunc, Dutscher, Brumath, France) and incubated at 37° C. for 24 hours before treatment in 190 μl of drug-free culture medium supplemented or not with 10% FBS for adherent or suspension growing cell lines, respectively.
The adherent cell lines were washed once with 200 μl FBS-free culture medium before treatment. […]
Three (3) independent experiments were performed, each concentration being tested in quadruplicate. […] At the end of treatments, the cytotoxic activity was evaluated by a MTS assay (see §3.3). […]
At the end of the cells treatment, 40 μl of a 0.22 μm filtered freshly combined solution of MTS (20 ml at 2 mg/ml, Ref G1111, Batch 235897, Exp March/2009, Promega, Charbonnières, France) and PMS (1 ml at 0.92 mg/ml, Ref P9625, Batch 065K0961, Sigma) in Dulbecco's Phosphate Buffered Saline (DPBS, Ref 17-513Q, Batch 6MB0152, Cambrex), were added in each well. […] Absorbency (OD) were measured at 490 nm in each well using VICTOR^3™ 1420 multilabeled counter (Wallac, PerkinElmer, Courtaboeuf, France). […]
The dose-response curves were plotted using XLFit 3 (IDBS, United Kingdom). The IC50 determination values were calculated using the XLFit 3 software from semi-log curves. […]

Data set [2] relates to panel of 10 lymphoma cell lines. In words: In vitro cytotoxic activity on lymphoma cells, MTS assay, panel summary. Format: cell-based, human. Particulars: range stated in conclusions. From the text:
• To determine the concentrations of five novel compounds to obtain a 50% inhibition of proliferation (IC50) against a panel of 10 lymphoma cell lines. 2. Materials and Methods 2.1. Test Substances 2.1.1. Test Substances • Test substances, LTX-302, LTX-313, LTX-315, LTX-320 and LTX-329 (see Table 1) provided in powder form. 2.1.2. Positive Control • Triton X-100 was used as positive control and supplied by Oncodesign (Dijon, France) from Sigma (Saint Quentin Fallavier, France). 2.1.3. Drug vehicle and storage condition • Compounds were stored at 4° C. Powder was first dissolved in serum free culture medium (RPMI 1640, Lonza, Verviers, Belgium) and further diluted using serum-free culture medium to reach appropriate dilutions. Stock solution was not stored and was prepared fresh the day of experiment. • 1% (final concentration) Triton X-100 was obtained by dilution using culture medium. 2.2. Tumor Cell Lines and Culture Conditions 2.2.1. Tumor Cell Lines
Tumor cells were grown as suspensions at 37° C. in a humidified atmosphere (5% CO2, 95% air). The culture medium for each cell line is described in the Table 3 below. For experimental use, cells were counted in a hemocytometer and their viability was assessed by 0.25% trypan blue exclusion.
Tumor cells were plated in 96-well flat-bottom microtitration plates (Nunc, Dutscher, Brumath, France) and incubated at 37° C. for 24 hours before treatment in 190 μl of drug-free and FBS-free culture medium.
Tumor cells were incubated for 4 hours with 10 concentrations of compounds in ¼ dilution step with a top dose of 400 μM (range 4×10^−4 to […]), with 1% (final concentration) Triton X-100 as positive control and FBS-free culture medium as negative control. The cells (190 μl) were incubated in a 200 μl final volume of FBS-free culture medium containing test substances at 37° C. under 5% CO2.
Three independent experiments were performed, each concentration being issued from quadruplicate. Control cells were treated with vehicle alone. At the end of treatments, the cytotoxic activity was evaluated by a MTS assay (see §3.3 below). […]
At the end of the cells treatment, 40 μl of a 0.22 μm filtered freshly combined solution of MTS (20 ml at 2 mg/ml, Ref G1111, Batch 235897, Exp March/2009, Promega, Charbonnières, France) and PMS (1 ml at 0.92 mg/ml, Ref P9625, Batch 065K0961, Sigma) in Dulbecco's Phosphate Buffered Saline (DPBS, Ref 17-513Q, Batch 6MB0152, Cambrex), were added in each well. […] Absorbency (OD) were measured at 490 nm in each well using VICTOR^3™ 1420 multilabeled counter (Wallac, PerkinElmer, Courtaboeuf, France).
4.1. IC50 Data was Determined as in Example 1
On the technique in general: Tetrazolium dyes change colour on reduction, which living cells bring about.

For data set [3], the system named is murine A20 B-cell lymphoma. Put plainly: Intratumoral treatment of murine A20 B-cell lymphoma tumours in mice. Format: in vivo. Particulars: Group 1 (1 mg) compared to the other two groups. The method, then:
The aim of the study was to investigate the effect of LTX-315 at different dose levels on a murine A20 B-cell lymphoma in mice.
The administration took place by intratumoral injection of LTX-315 dissolved in sterile saline.
Female mice were inoculated subcutaneously in the abdomen with 5 million murine A20 cells (ATCC, LGC Promochem AB, Middlesex, England) in a volume of 50 μl. The mice were divided into four groups (see Table 5 below for details). The intratumoral treatment was initiated when the tumours had reached the desired size of approximately 5 mm in diameter (minimum of 20 mm^2).
Three dose levels of LTX-315, 1 mg (Group 1), 0.5 mg (Group 2) and 0.25 mg (Group 3) per injection, were investigated. The volume was 50 μl for all injections. LTX-315 was dissolved in sterile 0.9% NaCl water solution. This vehicle was used as control (Group 4). All four groups received three injections.
A caliper was used for tumour size measurements and weighing and physical examination were used as health control.
Animals: Specific pathogen-free female Balb/c mice, 6-8 weeks old, supplied form Harlan (England, UK)

Non-standard residues stand in square brackets, D forms with d. Residues, ends and D or L forms follow the SMILES beside them. Bip = N[C@@H](Cc1ccc(-c2ccccc2)cc1)C(=O)O; dBip = N[C@H](Cc1ccc(-c2ccccc2)cc1)C(=O)O; Dip = N[C@H](C(=O)O)C(c1ccccc1)c1ccccc1

Regarding `NCCCC[C@@H](N)C(=O)N[C@H](CCCCN)C(=O)N[C@H](Cc1ccc(-c2ccccc2)cc1)C(=O)N[C@H](Cc1c[nH]c2ccccc12)C(=O)N[C@H](CCCCN)C(=O)N[C@H](CCCCN)C(=O)N[C@H](Cc1c[nH]c2ccccc12)C(=O)N[C@H](Cc1c[nH]c2ccccc12)C(=O)N[C@H](CCCCN)C(N)=O` [LTX-329, k-k-bip-w-k-k-w-w-k-NH2] (H-[dK][dK][dBip][dW][dK][dK][dW][dW][dK]-NH2; N-terminus assumed), the “IC50 values against 37 human cancer cell lines (cytolytic activity), in words” value in data set [1] is “micromolar to ten micromolar range”. The “IC50 values against the 10 human lymphoma cell lines (cytolytic activity), in words” value in data set [2] was “micromolar range”.
Take `N=C(N)NCCC[C@H](NC(=O)[C@H](Cc1c[nH]c2ccccc12)NC(=O)[C@H](Cc1c[nH]c2ccccc12)NC(=O)[C@H](CCCNC(=N)N)NC(=O)[C@H](CCCNC(=N)N)NC(=O)[C@@H](NC(=O)[C@H](Cc1c[nH]c2ccccc12)NC(=O)[C@H](CCCNC(=N)N)NC(=O)[C@@H](N)CCCNC(=N)N)C(c1ccccc1)c1ccccc1)C(N)=O` [LTX-320, R-R-W-Dip-R-R-W-W-R-NH2] (H-RRW[Dip]RRWWR-NH2; N-terminus assumed): the “IC50 values against 37 human cancer cell lines (cytolytic activity), in words” value in data set [1] was “micromolar to ten micromolar range”. Further, the “IC50 values against the 10 human lymphoma cell lines (cytolytic activity), in words” value in data set [2] was “micromolar range”.
`NCCCC[C@H](NC(=O)[C@H](Cc1c[nH]c2ccccc12)NC(=O)[C@H](CCCCN)NC(=O)[C@H](CCCCN)NC(=O)[C@@H](NC(=O)[C@H](Cc1c[nH]c2ccccc12)NC(=O)[C@H](CCCCN)NC(=O)[C@H](CCCCN)NC(=O)[C@@H](N)Cc1c[nH]c2ccccc12)C(c1ccccc1)c1ccccc1)C(N)=O` [LTX-302, W-K-K-W-Dip-K-K-W-K-NH2] (H-WKKW[Dip]KKWK-NH2; N-terminus assumed): in data set [1], the “IC50 values against 37 human cancer cell lines (cytolytic activity), in words” value is “micromolar to ten micromolar range”. Further, in data set [2], the “IC50 values against the 10 human lymphoma cell lines (cytolytic activity), in words” value is “micromolar range”.
For the compound `NCCCC[C@H](NC(=O)[C@H](Cc1c[nH]c2ccccc12)NC(=O)[C@H](Cc1c[nH]c2ccccc12)NC(=O)[C@H](CCCCN)NC(=O)[C@H](CCCCN)NC(=O)[C@H](Cc1c[nH]c2ccccc12)NC(=O)[C@H](Cc1ccc(-c2ccccc2)cc1)NC(=O)[C@H](CCCCN)NC(=O)[C@@H](N)CCCCN)C(N)=O` [LTX-313, K-K-Bip-W-K-K-W-W-K-NH2] (H-KK[Bip]WKKWWK-NH2; N-terminus assumed), the “IC50 values against 37 human cancer cell lines (cytolytic activity), in words” value in data set [1] was “micromolar to ten micromolar range”. Also, in data set [2], the “IC50 values against the 10 human lymphoma cell lines (cytolytic activity), in words” value was “micromolar range”.
Regarding `NCCCC[C@H](NC(=O)[C@@H](NC(=O)[C@H](Cc1c[nH]c2ccccc12)NC(=O)[C@H](CCCCN)NC(=O)[C@H](CCCCN)NC(=O)[C@H](Cc1c[nH]c2ccccc12)NC(=O)[C@H](Cc1c[nH]c2ccccc12)NC(=O)[C@H](CCCCN)NC(=O)[C@@H](N)CCCCN)C(c1ccccc1)c1ccccc1)C(N)=O` [LTX-315, K-K-W-W-K-K-W-Dip-K-NH2] (H-KKWWKKW[Dip]K-NH2), the “necrosis and wound formation” value in data set [3] was “stronger necrosis and more wound formation”.
